We go through one molecule from patent publication US11008325B2, “Inhibitors of cancer invasion, attachment, and/or metastasis” (VIRGINIA COMMONWEALTH UNIVERSITY, priority 2016, dated 2021).

Each structure is given as a SMILES string. “Also recorded” adds a separate entry of the source.

Data set [1] deals with MMP-2 and MMP-9. As to the kind of experiment: western blotting and gelatin zymography of conditioned media. It is filed as cell-based. To be noted: 50 μM, 24 h.
For data set [2], the system named is HBMEC barrier over GBM6 cells. As to the kind of experiment: HBMEC transwell blood brain barrier surrogate assay. In kind it is in vitro ADME, human. The note with it: 50 μM PDZ1i, 24 h, read out as GBM6 invasion. The method, then: FIG. 12. PDZ1i crosses the blood brain barrier (BBB). Primary human malignant glioma cells (GBM6) were seeded on the bottom well of a transwell chamber. In the top chamber, a monolayer of HBMEC cells separated GBM6 cells from media containing DMSO, 50 μM PDZ1i or Temozolomide (500 μM). After 24 h incubation in these conditions, invasion of GBM6 cells were analyzed by seeding in a trans-well Matrigel invasion assay and stained after 24 h. NB: PDZ1i treatment and invasion assay without HBMEC barrier. Error bars=f s.d.
A critical property of a potential therapeutic agent is its stability in the circulation and bioavailability in vivo. […] Additionally, when treating glioma pharmaceutically, the ability for a compound to cross the blood brain barrier (BBB) is paramount. […] Prior to in vivo efficacy studies, we evaluated the ability of the compound to cross the blood brain barrier using a target-based surrogate cellular assay. This method is preferred to direct in vivo measurements of compound concentration in the brain because of low sensitivity of the detection methods, and most importantly because of the presence of drug in various vascular spaces, i.e., the residual blood of the brain. […] After 24 h, we assessed the invasive ability of the treated GBM6 cells compared to pretreated controls. […]

In data set [3] the test system is melanocytes. Kind of data set: toxicity to melanocytes. The note with it: tested up to 100 μM. In kind it is cell-based.
Data set [4] has as its system U87 cells. Kind of data set: MTT assay after radiation. To be noted: radiation plus PDZ1i versus radiation plus DMSO. In kind it is cell-based, human. The method, then:
FIGS. 8A-8D. PDZ1i produces similar effects to mda-9/syntenin knockdown post-radiation. FIG. 8A. ImPHFA and U87 cells were treated with 50 μM PDZ1i 2 h prior to radiation and analyzed for colony formation after 14 d. FIG. 8B. U87 cells were treated with 50 μM PDZ1i 2 h prior to radiation and analyzed via MTT assay after 24 h. FIG. 8C. U87 cells were pretreated with 50 μM PDZ1i 2 h prior to radiation and subsequently seeded in a trans-well Matrigel invasion assay and stained after 24 h. Invasion was quantified from 5 random fields in FIG. 8D. Error bars=±s.d. *p<0.05, **p<0.01.
Clonogenic radiosurvival experiments were carried out as described previously (4,7). Briefly, cells were diluted, seeded on 6-cm dishes, and after the cells attached, treated with DMSO or PDZ1i (12.5, 25, or 50 μM) in the medium for 2 h before irradiation. Cells were incubated overnight, and the medium changed to nondrug containing medium 16 h postirradiation. Cells were incubated further for 14 days, stained with 2% Giemsa solution, and colonies consisting of 50 or more were counted. Cell viability was assessed through MTT analysis as described previously (8).

The subject of data set [5] is B16 cells. Kind of data set: B16 experimental lung metastasis. It is filed as in vivo, C57BL/6 mice. The note with it: repeated treatment I.P., 30 and 50 mg/kg, 6 injections. The method, then:
FIG. 57. PDZ1in (113B7) treatment results in marked reduction of B16 experimental lung metastases. C57BU6 mice were inoculated I.V. with B16 cells ([…]) to generate experimental lung metastases. One day after I.V. injection, mice received 30 and 50 mg/kg b.w. PDZ1i I.P. 3× a week for the first two weeks (total 6 injections). After 21 days, mice were sacrificed and lungs were collected, fixed with formalin and examined for nodules. Representative lungs with tumor metastases are shown.
Preliminary studies were performed to determine if administering PDZ1ln (113B7) would affect experimental metastasis. B16, a highly aggressive metastatic mouse melanoma, was intravenously injected resulting in lung nodules within 3 weeks. […] This experiment confirms that treatment with PDZ1in targeting MDA-9/Syntenin can directly prevent formation of lung metastases in vivo.

The subject of data set [6] is various types of cancer cells including PC. As to the kind of experiment: modified Boyden Chamber invasion assay. It is filed as cell-based, human. To be noted: pre-treatment, dose as indicated (20 μM or 40 μM). The method, then: FIGS. 17A-17H. Effect of PDZ1i on invasion, MDA-9/IGF-R1 interaction and IGF-R1, STAT3 and SRC phosphorylation. FIG. 17A) Different cancer cells (25,000 cells/well) from various anatomic origins were pre-treated with either DMSO (vehicle) or PDZ1i (dose as indicated) and invasion ability was assayed using modified Boyden Chamber according to the manufacturer's instructions. Photomicrographs were taken at 10× magnification and quantification of the results of three independent experiments is provided in the graphs. The data presents mean±S.D. B) The designated cells were treated with DMSO or PDZ1i and invasion properties were determined using a modified Boyden Chamber assay (BD bioscience). RWPE-1 mda-9: mda-9 transiently overexpressing cell line. […] FIG. 17E) Cells were growth starved for 24 h and treated with either DMSO or PDZ1i (dose indicated in μM) for 6 h. Cells were treated with human recombinant IGFBP-2 (hIGFBP-2, 10 ng/ml) for 2 h, lysates were prepared and western blot analysis was conducted with specific antibodies. […] Cells were treated with human recombinant IL-6 (hIGFBP-2, 1 ng/ml) for 2 h, cell lysates were prepared and analyzed by western blotting. […]
Boyden chamber assays were done to investigate the invasive properties of cancer cells^26, 27. […] After 18 h, invasive cells were photographed and analyzed.

As to `Cc1cc(NC(=O)c2nc3[nH]c4c(c(=O)n3n2)CCC4)c(C)cc1NC(=O)CCc1nnc(-c2ccccc2)o1` [113B7, N-(2,5-dimethyl-4-(3-(5-phenyl-1,3,4-oxadiazol-2-yl)propanamido)phenyl)-8-oxo-5,6,7,8-tetrahydro-4H-cyclopenta[d][1,2,4]triazolo[1,5-a]pyrimidine-2-carboxamide], the “MMP-2 and MMP-9 protein and activity level” value in data set [1] is reported as “downregulates”. Further, the “crossing of the HBMEC barrier (blood brain barrier surrogate)” value in data set [2] is given as “effectively crossed the HBMEC barrier”. Also, in data set [3], the toxicity to melanocytes entry is “did not show any significant toxicity”. Moreover, the proliferation following radiation result in data set [4] is reported as “significantly decreased”. The “number of lung nodules” value in data set [5] was “significantly reduced the number of lung nodules”. Moreover, the invasion entry in data set [6] was “inhibited invasion in a dose-dependent manner; also recorded: significantly inhibited the invasion”; in data set [6] (listed as PDZ1i), “significantly inhibited the invasion”.
